Data from PubChem BioAssay AID248 (DTP/NCI, 2004).
Values joined by “and” are separate entries in the source; they are usually repeats but may differ in a detail not shown here. Equal values may be shown once. Toxic doses and inconclusive results are not listed. Rule as the data show it: active = T/C of 150% or more; inactive = T/C below 125%.

Tested on: L1210 leukemia ip in BDF1 mice, survival T/C
Assay: NCI In Vivo Anticancer Drug Screen. Data for tumor model L1210 Leukemia (intraperitoneal) in B6D2F1 (BDF1) mice
Details: endpoint: mean survival time, higher = longer survival
Summary of the method: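 Survival endpoint. Drug-treated group vs vehicle group, expressed as T divided by C. Tumor passaged by transplantation.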

[1] = dose: 100.0 mg/kg/injection, schedule: Q01DX009 (ip), vehicle: Klucel (hydroxypropylcellulose) (HPC)
[2] = dose: 100.0 mg/kg/injection, schedule: Q04DX003 (ip), vehicle: Klucel (hydroxypropylcellulose) (HPC)
[3] = dose: 200.0 mg/kg/injection, schedule: Q01DX009 (ip), vehicle: Klucel (hydroxypropylcellulose) (HPC)
[4] = dose: 200.0 mg/kg/injection, schedule: Q04DX003 (ip), vehicle: Klucel (hydroxypropylcellulose) (HPC)
[5] = dose: 400.0 mg/kg/injection, schedule: Q01DX009 (ip), vehicle: Klucel (hydroxypropylcellulose) (HPC)
[6] = dose: 400.0 mg/kg/injection, schedule: Q04DX003 (ip), vehicle: Klucel (hydroxypropylcellulose) (HPC)
[7] = dose: 100.0 mg/kg/injection, schedule: Q01DX001 (ip), vehicle: Klucel (hydroxypropylcellulose) (HPC)
[8] = dose: 100.0 mg/kg/injection, schedule: Q04DX003 (ip), vehicle: saline
[9] = dose: 200.0 mg/kg/injection, schedule: Q04DX003 (ip), vehicle: saline
[10] = dose: 400.0 mg/kg/injection, schedule: Q04DX003 (ip), vehicle: saline
[11] = dose: 100.0 mg/kg/injection, schedule: Q01DX009 (ip), vehicle: saline with Tween-80
[12] = dose: 200.0 mg/kg/injection, schedule: Q01DX009 (ip), vehicle: saline with Tween-80
[13] = dose: 100.0 mg/kg/injection, schedule: Q01DX001 (ip), vehicle: saline
[14] = dose: 200.0 mg/kg/injection, schedule: Q01DX001 (ip), vehicle: saline
[15] = dose: 400.0 mg/kg/injection, schedule: Q01DX001 (ip), vehicle: saline

Measured: T/C

CNc1ccccc1[N+](=O)[O-]
inactive: [1] 100 % of control | dose: 100.0 mg/kg/injection, schedule: Q01DX009 (ip), vehicle: other 104 % of control | [2] 96 % of control | dose: 100.0 mg/kg/injection, schedule: Q04DX003 (ip), vehicle: other 107 % of control | [3] 98 % of control | dose: 200.0 mg/kg/injection, schedule: Q01DX009 (ip), vehicle: other 95 % of control | [4] 95 % of control | dose: 200.0 mg/kg/injection, schedule: Q04DX003 (ip), vehicle: other 97 % of control | [5] 104 % of control | dose: 400.0 mg/kg/injection, schedule: Q01DX009 (ip), vehicle: other 95 % of control | [6] 98 % of control | dose: 400.0 mg/kg/injection, schedule: Q04DX003 (ip), vehicle: other 113 % of control

Nc1nc(N)c2nc(CNc3ccc(C(=O)NCCCC(=O)O)cc3)cnc2n1 (tested in a mixture with another compound)
inactive: dose: 12.5 mg/kg/injection, schedule: Q01DX001 (ip), vehicle: Klucel (hydroxypropylcellulose) (HPC) 92 % of control | dose: 25.0 mg/kg/injection, schedule: Q01DX001 (ip), vehicle: Klucel (hydroxypropylcellulose) (HPC) 97 % of control | [7] 108 % of control

COc1ccc(CC(C(=O)O)C(Cc2ccc(OC)c(OC)c2)C(=O)O)cc1OC (centres undefined)
inactive: dose: 50.0 mg/kg/injection, schedule: Q01DX009 (ip), vehicle: Klucel (hydroxypropylcellulose) (HPC) 94 % of control | [1] 104 % of control | [8] 118 % of control | [3] 95 % of control | [9] 114 % of control | [5] 91 % of control | [10] 98 % of control

C#CCCN1CCC2(CC1)C(=O)NCN2c1ccccc1
inactive: [7] 91 % of control | dose: 200.0 mg/kg/injection, schedule: Q01DX001 (ip), vehicle: Klucel (hydroxypropylcellulose) (HPC) 94 % of control | dose: 400.0 mg/kg/injection, schedule: Q01DX001 (ip), vehicle: Klucel (hydroxypropylcellulose) (HPC) 91 % of control

CCOC(=O)c1cc(C(=O)OCC)c(C#N)c(=O)[nH]1
inactive: [1] 103 % of control | [2] 100 % of control | [3] 88 % of control | [4] 88 % of control | [5] 94 % of control | [6] 98 % of control

CCCCCC(=O)/C=C/c1ccc(C)cc1
inactive: [8] 102 % of control | [9] 100 % of control | [10] 112 % of control

CCC(CC)N=C(N)N
inactive: [8] 93 % of control

Cc1ccc(N=Nc2ccc(C)cc2NC(=O)Nc2ccccc2F)cc1
inactive: [1] 104 % of control | [3] 97 % of control | [5] 88 % of control

CC1CC2(C)C(CC1=O)CC(C)C1C2CCC2(C)C1CCC2(C)O (centres undefined)
inactive: [11] 90 % of control | [12] 90 % of control

C[n+]1ccn(CCCl)c1
inactive: dose: 25.0 mg/kg/injection, schedule: Q01DX Z (ip), vehicle: saline 96 % of control | dose: 50.0 mg/kg/injection, schedule: Q01DX Z (ip), vehicle: saline 93 % of control | dose: 100.0 mg/kg/injection, schedule: Q01DX Z (ip), vehicle: saline 96 % of control

CCOc1ccn(CC(=O)N2CCC3(CC2)SSC2(CCN(C(=O)Cn4ccc(OCC)nc4=O)CC2)S3)c(=O)n1
inactive: [8] 90 % of control | [9] 92 % of control | [10] 95 % of control

CCCCCCC(C)NCC(C)O (centres undefined)
inactive: dose: 75.0 mg/kg/injection, schedule: Q01DX001 (ip), vehicle: acid diluted with saline 96 % of control

CC(=O)Nc1ncnc2c(C3OC(COC(C)=O)C(OC(C)=O)C3OC(C)=O)[nH]nc12 (centres undefined)
inactive: [13] 100 % of control | [14] 97 % of control | [15] 100 % of control

CCCC(C(=O)OCCNC1CCCCC1)c1ccccc1 (centres undefined)
inactive: dose: 75.0 mg/kg/injection, schedule: Q01DX001 (ip), vehicle: saline 104 % of control

CN(C(=O)c1cc([N+](=O)[O-])ccc1O)c1ccccc1
inactive: [13] 98 % of control | [14] 95 % of control | [15] 101 % of control

CCc1nc2[nH]c(N)nc(=S)c2cc1C
inactive: dose: 100.0 mg/kg/injection, schedule: Q01DX Z (ip), vehicle: methylcellulose (MC) 95 % of control | dose: 200.0 mg/kg/injection, schedule: Q01DX Z (ip), vehicle: methylcellulose (MC) 95 % of control

CC(C)(C)NC(=O)Nc1ccccn1
inactive: [11] 102 % of control and 112 % of control | dose: 100.0 mg/kg/injection, schedule: Q04DX002 (ip), vehicle: saline with Tween-80 96 % of control | dose: 100.0 mg/kg/injection, schedule: Q04DX003 (ip), vehicle: saline with Tween-80 97 % of control | [12] 112 % of control and 91 % of control | dose: 200.0 mg/kg/injection, schedule: Q04DX002 (ip), vehicle: saline with Tween-80 108 % of control and 115 % of control | dose: 200.0 mg/kg/injection, schedule: Q04DX003 (ip), vehicle: saline with Tween-80 115 % of control | dose: 400.0 mg/kg/injection, schedule: Q01DX009 (ip), vehicle: saline with Tween-80 104 % of control | dose: 400.0 mg/kg/injection, schedule: Q04DX002 (ip), vehicle: saline with Tween-80 94 % of control and 96 % of control

CC(=O)c1sccc1C
inactive: dose: 6.25 mg/kg/injection, schedule: Q01DX009 (ip), vehicle: Klucel (hydroxypropylcellulose) (HPC) 93 % of control | dose: 12.5 mg/kg/injection, schedule: Q01DX009 (ip), vehicle: Klucel (hydroxypropylcellulose) (HPC) 92 % of control | dose: 12.5 mg/kg/injection, schedule: Q04DX003 (ip), vehicle: Klucel (hydroxypropylcellulose) (HPC) 101 % of control | dose: 25.0 mg/kg/injection, schedule: Q01DX009 (ip), vehicle: Klucel (hydroxypropylcellulose) (HPC) 90 % of control | dose: 25.0 mg/kg/injection, schedule: Q04DX003 (ip), vehicle: Klucel (hydroxypropylcellulose) (HPC) 92 % of control
